The text below walks through data of US20100173915A1, “PHARMACEUTICAL COMPOSITIONS FOR THE TREATMENT OF CHRONIC HEART FAILURE COMPRISING PYRAZOLOPYRIMIDINONE DERIVATIVE COMPOUND” (DONG-A PHARMACEUTICAL. CO., LTD, priority 2007, published 2010).

For data set [1], the system named is chronic heart failure-induced rats (abdominal aorta-to-inferior vena cava fistula). The experiment in a line: M-mode echocardiography in aortocaval fistula rat model of chronic heart failure. Format: in vivo, Sprague-Dawley rats. Conditions: CHF rats, 30 mg/kg orally for 8 weeks, mean±SD. As to the method:
(§1) Male Sprague-Dawley rats, weighing 220-240 g, were randomly divided into three groups: a normal control group (Normal), a heart failure control group (CHF) and a treatment group (CHF plus cpd.1), each group consisting of seven rats. The pyrazolopyrimidinone derivative was orally administered to heart failure-developed animals of the treatment group in a dose of 30 mg/kg. Normal control animals were subjected to a sham operation. […] After 8 weeks, 5 ml/kg of a solvent was orally administered to the normal control and heart failure control groups for 8 weeks, and the pyrazolopyrimidinone derivative was orally administered to the treatment group at a dose of 30 mg/kg for 8 weeks. Then, rats were anesthetized with pentobarbital (50 mg/kg, i.p.), and subjected to M-mode echocardiography in order to evaluate interventricular septum wall thickness (IWT) at end-systole (S) and end-diastole (D) of the left ventricle, posterior left ventricular wall thickness (PWT), left ventricular end-systolic dimension (LVESD), and left ventricular end-diastolic dimension (LVEDD). The relative wall thickness (RWT) was calculated according to the following equation: [IWT(D)+PWT(D)]/LVEDD, and is given in Table 1, below.

Data set [2] deals with atrial natriuretic peptide (ANP). Kind of data set: Serum atrial natriuretic peptide (ANP) levels in heart failure rats. It is filed as in vivo, Sprague-Dawley rats. The note with it: CHF rats, 30 mg/kg orally for 8 weeks; mean±SD; CHF control 0.040±0.004, normal 0.029±0.003. As to the method:
(§2) Male Sprague-Dawley rats, weighing 220-240 g, were randomly divided into three groups: a normal control group
(§3) (Normal), a heart failure control group (CHF) and a treatment group (CHF plus cpd.1), each group consisting of seven rats. The pyrazolopyrimidinone derivative was orally administered to heart failure-developed animals of the treatment group in a dose of 30 mg/kg.
as §1, with “Normal” for “Male Sprague-Dawley rats, weighing 220-240 g, were randomly divided into three groups: a normal control group (Normal), a heart failure control group (CHF) and a treatment group (CHF plus cpd.1), each group consisting of seven rats. The pyrazolopyrimidinone derivative was orally administered to heart failure-developed animals of the treatment group in a dose of 30 mg/kg. Normal”
(§4) After the echocardiographic measurements, blood samples were collected from abdominal aortas to prepare serum samples. […] All values are expressed as mean±SD.

Another data set concerns ANP mRNA. Kind of data set: ANP mRNA levels in left ventricular tissue by RT-PCR. Conditions: CHF rats, 30 mg/kg orally for 8 weeks, mean±SD, CHF control 0.963±0.114, normal 0.607±0.169. It is filed as in vivo, Sprague-Dawley rats. The protocol: as §2, §3
as §1, with “Normal” for “Male Sprague-Dawley rats, weighing 220-240 g, were randomly divided into three groups: a normal control group (Normal), a heart failure control group (CHF) and a treatment group (CHF plus cpd.1), each group consisting of seven rats. The pyrazolopyrimidinone derivative was orally administered to heart failure-developed animals of the treatment group in a dose of 30 mg/kg. Normal”
as §4

For data set [3], the system named is collagen deposition (ventricular fibrosis). Kind of data set: Collagen deposition in left ventricular tissue (Masson's trichrome) as marker of ventricular fibrosis. Format: in vivo, Sprague-Dawley rats. Conditions: CHF rats, 30 mg/kg orally for 8 weeks, mean±SD, CHF control 0.928±0.228, normal 0.384±0.103. As to the method:
as §2, §3
as §1, with “Normal” for “Male Sprague-Dawley rats, weighing 220-240 g, were randomly divided into three groups: a normal control group (Normal), a heart failure control group (CHF) and a treatment group (CHF plus cpd.1), each group consisting of seven rats. The pyrazolopyrimidinone derivative was orally administered to heart failure-developed animals of the treatment group in a dose of 30 mg/kg. Normal”
as §4

Data set [4] in a line: Physicochemical properties: pKa.
The nature of data set [5]: Physicochemical properties: solubility.
The nature of data set [6]: In vivo half-life compared to sildenafil. Conditions: longer than sildenafil.
In data set [7] the target is phosphodiesterase-5 (PDE-5) (Homo sapiens, UniProt O76074). Conditions: cited from earlier work.

Turning to `CCCOc1ccc(S(=O)(=O)NCCC2CCCN2C)cc1-c1nc2c(CCC)nn(C)c2c(=O)[nH]1` (stereo not shown) [cpd.1, 5-[2-propyloxy-5-(1-methyl-2-pyrrolidinyleneamidosulfonyl)phenyl]-1-methyl-propyl-1,6-dihydro-7H-pyrazolo(4,3-d)pyrimidine-7-one], in data set [1] (CHF control 0.34 ± 0.02, normal 0.42 ± 0.05), the “RWT, relative wall thickness [IWT(D)+PWT(D)]/LVEDD” value was determined as 0.42 ± 0.05. Further, the “IWT(D), interventricular septum wall thickness at end-diastole” value in data set [1] (CHF control 1.56 ± 0.09, normal 1.81 ± 0.20) was found to be 1.74 ± 0.13 mm. The “PWT(D), posterior left ventricular wall thickness at end-diastole” value in data set [1] (CHF control 1.64 ± 0.11, normal 1.83 ± 0.13) was determined as 1.78 ± 0.04 mm. The “PWT(S), posterior left ventricular wall thickness at end-systole” value in data set [1] (CHF control 2.54 ± 0.18, normal 2.89 ± 0.15) turned out to be 2.80 ± 0.10 mm. The “IWT(S), interventricular septum wall thickness at end-systole” value in data set [1] (CHF control 2.56 ± 0.11, normal 2.83 ± 0.17) was 2.74 ± 0.11 mm. Also, the “LVESD, left ventricular end-systolic dimension” value in data set [1] (CHF control 6.20 ± 0.70, normal 5.43 ± 0.31) is reported as 4.68 ± 0.38 mm. For the same molecule, the “LVEDD, left ventricular end-diastolic dimension” value in data set [1] (CHF control 9.75 ± 0.85, normal 8.69 ± 0.56) came to 8.45 ± 0.62 mm. In addition, the “serum ANP levels” value in data set [2] was found to be 0.033 ± 0.003 ng/mL. The “ANP mRNA levels in left ventricular tissues” value in the data set on ANP mRNA is listed as 0.739±0.120. In addition, the “amount of collagen deposition in ventricular tissue” value in data set [3] is 0.604±0.214. For the same molecule, in data set [4], the pKa1 entry is listed as “about 6.5” and the pKa2 entry is “about 12.5”. Also, in data set [5] (acetic acid, methanol and chloroform), the “solubility in acetic acid, methanol and chloroform” value was “readily dissolved”. In addition, in data set [5] (water), the solubility in water result is recorded as “difficult to dissolve in water”. Moreover, the “in vivo half-life relative to sildenafil” value in data set [6] is given as 3 times. For the same molecule, the “inhibitory activity against PDE-5” value in data set [7] was “strong and selective inhibitory activity”.
